Assay: Toxicity on macrophages (BMDM), WST-1 assay
Assay type: cell-based, C57BL/6J mice
Settings: C57BL/6J, mouse, bone marrow-derived macrophages (BMDM), read-out: macrophage viability
Procedure: WST-1 assay (Sigma-Aldrich, 5015944001) was used to determine the toxicity of the synthesized compounds on BMDM and HCT116 (ATCC, CCL-247), kindly provided by Dr. Nadine Darwiche, Department of Biochemistry and Molecular Genetics, American University of Beirut, Lebanon. Briefly, macrophages (50,000 cells per well) and HCT116 (20,000 cells per well) were plated in a 96-well plate in RPMI 1640 culture medium containing 10% fetal bovine serum (FBS) and grown for 24 h. Cells (in triplicates) were treated with 10 or 50 μM of the compounds for macrophages, and 50 or 100 μM for HCT116. Culture medium without cells and cells without treatment were used as basal and maximal activity, respectively. Results were expressed as percentage of cells without treatment.
F i g u re S1: E ff e c t of fluorin at ed benzofuran derivatives on m acrophages
viabilit y. C ells in cub at ed with 10 and 50 μM of benzofuran d eri vativ es
(compounds 1 to 9) bel onging to groups І, II, III and IV for 24 hours. Cell
viabilit y w as det ermin ed by WST-1 assay. Non-t r eated m acrophages wer e used
as cont rol. Results were shown as mean ± SEM (n=3) . *p< 0.05 comp ar ed to the
vehicle –treated cells (basal), one-way ANOVA followed by Dunnett’s test.
(1 picture or pasted object on this page, not shown here)

Work on `COC(=O)/C=C1/Oc2ccc(Br)cc2C1(F)F` [Compound 1] yielded a viability at 24 h, 50 µM of 50%.

— paper PMC10299677, “Fluorinated Benzofuran and Dihydrobenzofuran as Anti-Inflammatory and Potential Anticancer Agents” (International Journal of Molecular Sciences, 2023)
